{
  "source": "patent US20070015780A1",
  "about": "“Method of treating cancer with azaspirane compositions” (priority 2003, published 2007)",
  "key": {"caspase-9": {"tested_on": "caspase-9", "test": "Activation of caspases in T84 colon carcinoma cells", "type": "cell-based, human", "details": "10 hours", "method": "(§1) Activities of caspase-3 and caspase-9 were measured using […] assay kits (BioVision, CA). The procedure used was essentially the same as described in the manufacturer's instruction. Briefly, 7-day-old monolayers of T 84 cells in 100 mm dishes were treated with either vehicle (as control) or N,N,-diethyl-8,8-dipropyl-2-azaspiro[4,5]decane-2-propanamine dimaleate (Compound 1) at the indicated respective concentrations for 10 hours. After the treatment, cells were washed with PBS and the cell extracts were prepared by resuspending cells in 200 μl (˜10^8 cells) of lysis buffer provided in the kit. Cell debris was removed by centrifugation at 10,000×g for 30 min. Supernatants (50-100 μg of protein) were pre-incubated with 10 mM dithiothreitol, 50 mM HEPES, 10% sucrose, 0.1% CHAPS (pH 7.5) and the reaction was started with the addition of 100 μM of the appropriate substrate (DEVD-pNA for caspase-3 and LEHD-pNA for caspase-9). The assay plates (96-well) were incubated at 37° C. for 2 hours, and the yellow color resulting from the release of pNA was measured at 405 nm using an ELISA reader. Samples were run in triplicate and results were expressed as an average of three determinations."}, "caspase-3": {"tested_on": "caspase-3", "test": "Activation of caspases in T84 colon carcinoma cells", "type": "cell-based, human", "details": "10 hours", "method": "as §1"}, "HS 578T": {"tested_on": "HS 578T", "test": "NCI SRB tumor cell growth assay, Breast Cancer", "type": "cell-based", "method": "(§2) An in vitro assay which tested the ability of N,N,-diethyl-8,8-dipropyl-2-azaspiro[4,5]decane-2-propanamine dimaleate (Compound 1) to inhibit the growth of known cancer cell lines was performed by the National Cancer Institute in accordance with standard procedures. See: Lin, Z. X., Hoult, J. R., and Raman, A. Sulphorhodamine B assay for measuring proliferation of a pigmented melanocyte cell line and its application to the evaluation of crude drugs used in the treatment of vitiligo. J Ethnopharmacol. 66: 141-150, 1999. Briefly, selected tumor cell lines were cultured in media containing five different concentrations of Compound 1. After 48 hours of continuous exposure, a sulforhodamine B (SRB) assay was used to estimate cell viability or growth via optical measurements.\n(§3) From the measurements, the following values were determined: 1) the concentration of Compound 1 at which a tumor cell growth inhibition of 50% (relative to control) occurs (GI50), 2) the concentration of Compound 1 at which no growth occurs (total growth inhibition, TGI), and 3) the concentration of Compound 1 at which the […] (LC 50). […] FIG. 6 illustrates, graphically, tumor cell growth as a function of Compound 1 concentration of the scanned tumor cell lines."}, "HUVEC cells": {"tested_on": "HUVEC cells", "test": "Induction of apoptosis, DNA fragmentation analysis", "type": "cell-based, human", "details": "16 hours", "method": "(§4) T84, CaCo-2 and HUVEC cells, respectively, were grown in 100 mm dishes for 7-9 days, culture media for HUVEC was EGM-2 (Clonetics, BioWhitaker Co.), until they reached semi-confluency. Cell monolayers were then treated for 12 hours (CaCo-2 and T84) and 16 hours (HUVEC), respectively, at the indicated concentrations of N,N,-diethyl-8,8-dipropyl-2-azaspiro[4,5]decane-2-propanamine dimaleate (Compound 1) in culture media. Cells were collected by trypsinization and the apoptotic DNA was isolated from these cells following the instructions of the DNA fragmentation analysis kit (Boehringer Mannheim Corp., Indianapolis, Ind.). The apoptotic DNA was evaluated using 1.5% agarose gel electrophoresis followed by staining with ethidium bromide. M denotes the lane containing molecular weight markers of DNA."}, "T84 cells": {"tested_on": "T84 cells", "test": "Induction of apoptosis, DNA fragmentation analysis", "type": "cell-based, human", "details": "12 hours", "method": "as §4"}, "CaCo-2 cells": {"tested_on": "CaCo-2 cells", "test": "Induction of apoptosis, DNA fragmentation analysis", "type": "cell-based, human", "details": "12 hours", "method": "as §4"}, "Various Tumor Cell Lines": {"tested_on": "Various Tumor Cell Lines", "test": "NCI SRB tumor cell growth assay, summary over all cell lines", "type": "cell-based", "method": "as §2, §3"}, "[1]": {"tested_on": "chorioallantoic membrane (CAM)", "test": "Anti-angiogenesis CAM assay", "type": "in vivo, White Leghorn eggs", "details": "ten eggs, 48 hours", "method": "The dosing was effected by pipetting 40 μl of the indicated solution onto a 13 mm round Thermanox® coverslip and allowing it to air dry. After the material appeared dry, the coverslip was placed onto the chorioallantoic membrane (CAM) of each egg insuring contact of the dried test article with the CAM. After dosing, the eggs were returned to the incubator for approximately 48 hours. Following the 48 hour exposure period, the eggs were removed from the incubator, observed for viability, and the exposed area under the coverslip was examined for loss of vasculature."}},
  "data": [
    {"smiles": "CCCC1(CCC)CCC2(CCN(CCCN(CC)CC)C2)CC1.O=C(O)/C=C\\C(=O)O.O=C(O)/C=C\\C(=O)O", "note": "[Compound 1, N,N,-diethyl-8,8-dipropyl-2-azaspiro[4,5]decane-2-propanamine dimaleate]", "values": [
      {"measurement": "caspase-9 activity", "setting": "caspase-9", "result": "activation"},
      {"measurement": "caspase-3 activity", "setting": "caspase-3", "result": "activation"},
      {"measurement": "Log10 TGI", "setting": "HS 578T", "result": "−5.40"},
      {"measurement": "DNA laddering (apoptosis)", "setting": "HUVEC cells", "result": "formation of DNA laddering in a dose-dependent manner"},
      {"measurement": "DNA laddering (apoptosis)", "setting": "T84 cells", "result": "formation of DNA laddering in a dose-dependent manner"},
      {"measurement": "DNA laddering (apoptosis)", "setting": "CaCo-2 cells", "result": "formation of DNA laddering in a dose-dependent manner"},
      {"measurement": "Log10 LC50, MG_MID", "setting": "Various Tumor Cell Lines", "result": "−5.06"},
      {"measurement": "Dead Eggs", "setting": "[1]; Dose Per Egg 25 μg", "result": 0},
      {"measurement": "Dead Eggs", "setting": "[1]; Dose Per Egg 50 μg", "result": 0},
      {"measurement": "Dead Eggs", "setting": "[1]; Dose Per Egg 100 μg", "result": 4},
      {"measurement": "Dead Eggs", "setting": "[1]; Dose Per Egg 200 μg", "result": 3},
      {"measurement": "Dead Eggs", "setting": "[1]; Dose Per Egg 400 μg", "result": 7}
    ]},
    {"smiles": "O=C1CCC(N2C(=O)c3ccccc3C2=O)C(=O)N1", "note": "(stereo not shown) [Thalidomide, reference compound]", "values": [
      {"measurement": "Dead Eggs", "setting": "[1]; Dose Per Egg 100 μg", "result": 0}
    ]}
  ]
}
